Assay results as given in article PMC8037182, “Solvothermal Synthesis of Multiple Dihydropyrimidinones at a Time as Inhibitors of Eg5” (Molecules, 2021).

Assays:
L929 cell line = test: Cytotoxicity MTS assay, L929 cell line; format: cell-based; details: for OD490 values, Mean / OD490 values, Well 1 / OD490 values, Well 2 / OD490 values, Well 3: L929 cell line
Experimental: (§1) The positive compounds (IC50 < 100 μM) obtained from the primary Eg5 motor protein ATPase assay were tested for antiproliferative activity in vitro against Caco-2 cell line, Hela cell line, L929 cell line and T24 cell line by performing MTS assay. Cells were introduced into 96-well plates at a density of 1000 cells per well. After 24 h incubation, the cells were exposed with compounds at final concentrations ranging from 0.5 to 100 µM for 24 h. DMSO was used at a final concentration of 0.025% as blank control, monastrol was used as the positive control. Then 20 µL (CellTiter 96® AQueous One Solution Promega, Madison, WI, USA) reagent was added in each well. After 2 h at 37 °C in a 80% humidified, 5% CO2 atmosphere, the absorbance at 490 nm was recorded using a microplate reader (BIO-RAD iMark^TM). The results were obtained in three independent duplicate experiments. The primary data were shown in Supplementary Materials Tables S4–S7. The IC50 values for these compounds were calculated from a non-linear regression graph plotted between the percentage of cell viability and concentration with SPSS17.0 software.

T24 cell line = test: Cytotoxicity MTS assay, T24 cell line; format: cell-based; details: for OD490 Mean / OD490 Well 1 / OD490 Well 2 / OD490 Well 3: T24 cell line, first assay
Experimental: as §1

CCOC(=O)c1[nH]c(C2NC(=O)NC(C)=C2C(=O)Nc2ccc(Cl)cc2)c(C(=O)OCC)c1C (centres unmarked) [D7]
OD490 values, Mean (L929 cell line; 0.5μM, first assay): 1.2964 | OD490 values, Well 1 (L929 cell line; 0.5μM, first assay): 1.2432 | OD490 values, Well 2 (L929 cell line; 0.5μM, first assay): 1.3324 | OD490 values, Well 3 (L929 cell line; 0.5μM, first assay): 1.3135 | OD490 values, Mean (L929 cell line; 0.5μM, second assay): 1.6723 | OD490 values, Well 1 (L929 cell line; 0.5μM, second assay): 1.6985 | OD490 values, Well 2 (L929 cell line; 0.5μM, second assay): 1.7484 | OD490 values, Well 3 (L929 cell line; 0.5μM, second assay): 1.5699 | OD490 values, Mean (L929 cell line; 0.5μM, third assay): 1.6351 | OD490 values, Well 1 (L929 cell line; 0.5μM, third assay): 1.6545 | OD490 values, Well 2 (L929 cell line; 0.5μM, third assay): 1.5521 | OD490 values, Well 3 (L929 cell line; 0.5μM, third assay): 1.6987 | OD490 values, Mean (L929 cell line; 1μM, first assay): 1.2921 | OD490 values, Well 1 (L929 cell line; 1μM, first assay): 1.3838 | OD490 values, Well 2 (L929 cell line; 1μM, first assay): 1.2582 | OD490 values, Well 3 (L929 cell line; 1μM, first assay): 1.2343 | OD490 values, Mean (L929 cell line; 1μM, second assay): 1.6805 | OD490 values, Well 1 (L929 cell line; 1μM, second assay): 1.6879 | OD490 values, Well 2 (L929 cell line; 1μM, second assay): 1.6582 | OD490 values, Well 3 (L929 cell line; 1μM, second assay): 1.6955 | OD490 values, Mean (L929 cell line; 1μM, third assay): 1.6677 | OD490 values, Well 1 (L929 cell line; 1μM, third assay): 1.6254 | OD490 values, Well 2 (L929 cell line; 1μM, third assay): 1.6358 | OD490 values, Well 3 (L929 cell line; 1μM, third assay): 1.7420 | OD490 values, Mean (L929 cell line; 10μM, first assay): 1.2890 | OD490 values, Well 1 (L929 cell line; 10μM, first assay): 1.2982 | OD490 values, Well 2 (L929 cell line; 10μM, first assay): 1.3257 | OD490 values, Well 3 (L929 cell line; 10μM, first assay): 1.2432 | OD490 values, Mean (L929 cell line; 10μM, second assay): 1.6485 | OD490 values, Well 1 (L929 cell line; 10μM, second assay): 1.6354 | OD490 values, Well 2 (L929 cell line; 10μM, second assay): 1.6254 | OD490 values, Well 3 (L929 cell line; 10μM, second assay): 1.6847 | OD490 values, Mean (L929 cell line; 10μM, third assay): 1.7036 | OD490 values, Well 1 (L929 cell line; 10μM, third assay): 1.5935 | OD490 values, Well 2 (L929 cell line; 10μM, third assay): 1.8852 | OD490 values, Well 3 (L929 cell line; 10μM, third assay): 1.6320 | OD490 values, Mean (L929 cell line; 25μM, first assay): 1.2098 | OD490 values, Well 1 (L929 cell line; 25μM, first assay): 1.2509 | OD490 values, Well 2 (L929 cell line; 25μM, first assay): 1.2839 | OD490 values, Well 3 (L929 cell line; 25μM, first assay): 1.0945 | OD490 values, Mean (L929 cell line; 25μM, second assay): 1.5137 | OD490 values, Well 1 (L929 cell line; 25μM, second assay): 1.4655 | OD490 values, Well 2 (L929 cell line; 25μM, second assay): 1.5869 | OD490 values, Well 3 (L929 cell line; 25μM, second assay): 1.4888 | OD490 values, Mean (L929 cell line; 25μM, third assay): 1.4100 | OD490 values, Well 1 (L929 cell line; 25μM, third assay): 1.4658 | OD490 values, Well 2 (L929 cell line; 25μM, third assay): 1.4441 | OD490 values, Well 3 (L929 cell line; 25μM, third assay): 1.3201 | OD490 values, Mean (L929 cell line; 50μM, first assay): 1.1393 | OD490 values, Well 1 (L929 cell line; 50μM, first assay): 1.0255 | OD490 values, Well 2 (L929 cell line; 50μM, first assay): 1.3097 | OD490 values, Well 3 (L929 cell line; 50μM, first assay): 1.0826 | OD490 values, Mean (L929 cell line; 50μM, second assay): 1.3764 | OD490 values, Well 1 (L929 cell line; 50μM, second assay): 1.3685 | OD490 values, Well 2 (L929 cell line; 50μM, second assay): 1.3652 | OD490 values, Well 3 (L929 cell line; 50μM, second assay): 1.3955 | OD490 values, Mean (L929 cell line; 50μM, third assay): 1.3402 | OD490 values, Well 1 (L929 cell line; 50μM, third assay): 1.3584 | OD490 values, Well 2 (L929 cell line; 50μM, third assay): 1.2635 | OD490 values, Well 3 (L929 cell line; 50μM, third assay): 1.3987 | OD490 values, Mean (L929 cell line; 100μM, first assay): 0.7147 | OD490 values, Well 1 (L929 cell line; 100μM, first assay): 0.7427 | OD490 values, Well 2 (L929 cell line; 100μM, first assay): 0.7798 | OD490 values, Well 3 (L929 cell line; 100μM, first assay): 0.6215 | OD490 values, Mean (L929 cell line; 100μM, second assay): 0.8285 | OD490 values, Well 1 (L929 cell line; 100μM, second assay): 0.8306 | OD490 values, Well 2 (L929 cell line; 100μM, second assay): 0.7562 | OD490 values, Well 3 (L929 cell line; 100μM, second assay): 0.8988 | OD490 values, Mean (L929 cell line; 100μM, third assay): 0.8420 | OD490 values, Well 1 (L929 cell line; 100μM, third assay): 0.8635 | OD490 values, Well 2 (L929 cell line; 100μM, third assay): 0.8992 | OD490 values, Well 3 (L929 cell line; 100μM, third assay): 0.7632 | IC50 (L929 cell line; MTS assay, 24 h exposure, ordinary fibroblast, not cancer cells): 94.7 µM | IC50 (T24 cell line; MTS assay, 24 h exposure): > 150 µM | OD490 Mean (T24 cell line; 0.5μM): 1.2446 | OD490 Well 1 (T24 cell line; 0.5μM): 1.2491 | OD490 Well 2 (T24 cell line; 0.5μM): 1.2874 | OD490 Well 3 (T24 cell line; 0.5μM): 1.1973 | OD490 Mean (T24 cell line; 1μM): 1.5295 | OD490 Well 1 (T24 cell line; 1μM): 1.4588 | OD490 Well 2 (T24 cell line; 1μM): 1.7975 | OD490 Well 3 (T24 cell line; 1μM): 1.3323 | OD490 Mean (T24 cell line; 10μM): 1.4981 | OD490 Well 1 (T24 cell line; 10μM): 1.4996 | OD490 Well 2 (T24 cell line; 10μM): 1.6104 | OD490 Well 3 (T24 cell line; 10μM): 1.3842 | OD490 Mean (T24 cell line; 25μM): 1.5238 | OD490 Well 1 (T24 cell line; 25μM): 1.6186 | OD490 Well 2 (T24 cell line; 25μM): 1.5573 | OD490 Well 3 (T24 cell line; 25μM): 1.3956 | OD490 Mean (T24 cell line; 50μM): 1.3341 | OD490 Well 1 (T24 cell line; 50μM): 1.3613 | OD490 Well 2 (T24 cell line; 50μM): 1.2657 | OD490 Well 3 (T24 cell line; 50μM): 1.3754 | OD490 Mean (T24 cell line; 100μM): 1.4451 | OD490 Well 1 (T24 cell line; 100μM): 1.4704 | OD490 Well 2 (T24 cell line; 100μM): 1.5023 | OD490 Well 3 (T24 cell line; 100μM): 1.3625
